We go through three compounds from ChEMBL document CHEMBL5131467, “Multivalent peptide dendrimers inhibit the fusion of viral-cellular membranes and the cellular NF-κB signaling pathway” (Eur J Med Chem, 2022).

Where a SMILES comes first, the peptide text is derived from it. Bridges are numbered along the chain shown (N, C = ends). Roman numbers before positions name the chains, in order. Side-chain parts run from the residue outwards. The star is where a group is joined. Acetyl(2-naphthyl) = O=C(Cc1ccc2ccccc2c1)*; Fmoc = O=C(OCC1c2ccccc2-c2ccccc21)*

The test system of this assay is Influenza A virus. The assay can be described thus: Antiviral activity against Influenza A virus (A/Puerto Rico/8/1934(H1N1)) NA-H374Y mutant infected in MDCK cells incubated for 1 hr by MTT assay. It is filed as functional, organism-based. For orientation: Formazan colour is commonly taken as a measure of viable cells.

As to `CCOC(=O)c1c(CSc2ccccc2)n(C)c2cc(Br)c(O)c(CN(C)C)c12.Cl`, the IC50 amounted to 600 nM.
`NCCCC[C@H](NC(=O)OCC1c2ccccc2-c2ccccc21)C(=O)N[C@@H](CCCCN)C(=O)N[C@@H](Cc1c[nH]c2ccccc12)C(=O)N[C@@H](CCCCN)C(=O)NCCCC[C@H](NC(=O)[C@H](CCCCN)NC(=O)[C@H](Cc1c[nH]c2ccccc12)NC(=O)[C@H](CCCCN)NC(=O)[C@H](CCCCN)NC(=O)OCC1c2ccccc2-c2ccccc21)C(=O)NCCCC[C@H](NC(=O)[C@H](CCCCNC(=O)[C@H](CCCCN)NC(=O)[C@H](Cc1c[nH]c2ccccc12)NC(=O)[C@H](CCCCN)NC(=O)[C@H](CCCCN)NC(=O)OCC1c2ccccc2-c2ccccc21)NC(=O)[C@H](CCCCN)NC(=O)[C@H](Cc1c[nH]c2ccccc12)NC(=O)[C@H](CCCCN)NC(=O)[C@H](CCCCN)NC(=O)OCC1c2ccccc2-c2ccccc21)C(=O)NCC(=O)O` (I: Fmoc-KKWKK([Lys-Trp-Lys-Lys-Fmoc])KG-OH / II: Fmoc-KKWKK([Lys-Trp-Lys-Lys-Fmoc]); amide I:6-II:C) returned an IC50 of 540 nM.
In turn, `NCCCC[C@H](NC(=O)Cc1ccc2ccccc2c1)C(=O)N[C@@H](CCCCN)C(=O)N[C@@H](Cc1c[nH]c2ccccc12)C(=O)N[C@@H](CCCCN)C(=O)NCCCC[C@H](NC(=O)[C@H](CCCCN)NC(=O)[C@H](Cc1c[nH]c2ccccc12)NC(=O)[C@H](CCCCN)NC(=O)[C@H](CCCCN)NC(=O)Cc1ccc2ccccc2c1)C(=O)NCCCC[C@H](NC(=O)[C@H](CCCCNC(=O)[C@H](CCCCN)NC(=O)[C@H](Cc1c[nH]c2ccccc12)NC(=O)[C@H](CCCCN)NC(=O)[C@H](CCCCN)NC(=O)Cc1ccc2ccccc2c1)NC(=O)[C@H](CCCCN)NC(=O)[C@H](Cc1c[nH]c2ccccc12)NC(=O)[C@H](CCCCN)NC(=O)[C@H](CCCCN)NC(=O)Cc1ccc2ccccc2c1)C(=O)NCC(=O)O` (I: {Acetyl(2-naphthyl)}-KKWKK([Lys-Trp-Lys-Lys-Acetyl(2-naphthyl)])KG-OH / II: {Acetyl(2-naphthyl)}-KKWKK([Lys-Trp-Lys-Lys-Acetyl(2-naphthyl)]); amide I:6-II:C) returned an IC50 of 160 nM.

For orientation: IC50 means the concentration needed to halve the response being measured. Higher therefore signals a need for much substance.
